Source: US20260137697A1, “THIAZOLO[5,4-D]PYRIMIDINE COMPOUNDS, COMPOSITIONS COMPRISING THEM AND USES THEREOF” (University de Montreal, priority 2022, published 2026)

Legend:
CRAF = target: T1, CRAF (Homo sapiens, UniProt P04049); experiment: CRAF kinase activity assay (ADP-Glo); type: biochemical; conditions: Table 3; 10 μM ATP, kinase-dead MEK1 substrate
T1 construct: fused on or other part: GST tag (N-terminal according to the vendor's product)
How it was run: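 ADP-Glo luminescence read after 2 h reactions at 30° C containing 0.375 nM GST-kinase, kinase-dead MEK1 (75 nM), ATP at 10 μM, pH 7.5 HEPES/MgCl2/DTT, 0.05% DMSO. Compounds dosed from 100 to 0.01 nM (nine points); IC50 from variable-slope fit of % inhibition.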

pERK, HCT116 cells = experiment: Phospho-ERK inhibition, AlphaLISA p-ERK 1/2, HCT-116; type: cell-based, human; conditions: Table 3; for IC50: HCT116 cells (KRAS G13D), 1 h treatment; for HCT116 pERK (Ymin %): lowest % inhibition value of the pERK IC50 curve, above −20% = no paradoxical induction
How it was run: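 Cells in RPMI-1640 with 5% FBS plated overnight, then treated 1 h with ten-point dilutions (10 μM to 0.33 nM, 0.5% DMSO). Lysate p-ERK1/2 (Thr202/Tyr204) read by AlphaLISA SureFire Ultra; % inhibition normalised to DMSO and 1 μM trametinib background, IC50 by four-parameter fit.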

T1 sequence (P04049 whole entry Y340E/Y341E, form open, the tested form may be a part): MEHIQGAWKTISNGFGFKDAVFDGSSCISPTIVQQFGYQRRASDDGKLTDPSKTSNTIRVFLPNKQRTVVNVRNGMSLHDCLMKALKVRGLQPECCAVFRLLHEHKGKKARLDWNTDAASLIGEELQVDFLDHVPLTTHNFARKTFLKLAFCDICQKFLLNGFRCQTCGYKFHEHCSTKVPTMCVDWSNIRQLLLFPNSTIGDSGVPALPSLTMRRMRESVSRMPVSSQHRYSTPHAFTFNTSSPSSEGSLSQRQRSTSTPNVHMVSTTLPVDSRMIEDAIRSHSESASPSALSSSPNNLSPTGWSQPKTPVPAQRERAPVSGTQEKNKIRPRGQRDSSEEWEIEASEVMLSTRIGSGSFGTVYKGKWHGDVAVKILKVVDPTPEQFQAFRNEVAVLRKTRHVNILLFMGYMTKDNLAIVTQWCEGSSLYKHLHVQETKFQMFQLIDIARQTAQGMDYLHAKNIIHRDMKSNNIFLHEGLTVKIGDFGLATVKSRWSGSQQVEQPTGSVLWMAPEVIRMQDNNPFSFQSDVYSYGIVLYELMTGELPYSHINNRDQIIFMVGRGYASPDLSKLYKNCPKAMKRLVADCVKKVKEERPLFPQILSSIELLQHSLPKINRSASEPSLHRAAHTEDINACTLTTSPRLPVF

IC50 (CRAF)	IC50 (pERK, HCT116 cells)	SMILES	HCT116 pERK (Ymin %) (pERK, HCT116 cells)
< 10 nM	< 500 nM	Cc1c(F)cccc1S(=O)(=O)Nc1ccc(F)c(Nc2ncnc3sc(-n4cc(C(=O)N5C6CCC5CN(C)C6)c5ccccc54)nc23)c1F [Example 44]	3%
< 10 nM	< 500 nM	N#CC1(c2cccc3c2ncn3-c2nc3c(Nc4c(F)ccc(NS(=O)(=O)c5cccc(Cl)c5Cl)c4F)ncnc3s2)CC1 [Example 122]	2%
